Test [1] deals with Male C57BL/6N mice. Briefly: Triglyceride absorption suppression after fat loading (in vivo DGAT1 inhibitory effect). The note with it: Mus musculus, po; dose of 10 mg/kg or lower, orally administered, mice fasted overnight, plasma triglyceride after fat loading; read-out: Triglyceride absorption suppressive activity. The procedure: The DGAT1 enzyme is important for the digestion and absorption of triglycerides, and the inhibition of DGAT1 in the small intestine suppresses the absorption of triglycerides. The in vivo activity of its DGAT1 inhibitory effect was evaluated with the suppressed absorption of triglycerides after fat loading as an index. Male C57BL/6N mice (7-12 weeks old, body weight: 17-25 g, Charles River Laboratories Japan Inc.) fasted overnight were assigned to Vehicle group 1, Vehicle group 2, and each test compound group, to which a vehicle (0.5% methylcellulose) or each test compound (1 to 10 mg/kg) suspended in vehicle was orally administered (5 mL/kg). After a given time, a lipoprotein lipase inhibitor (Pluronic-F127: Sigma-Aldrich Corp., 1 g/kg, 20% by weight dissolved in saline) was intraperitoneally administered (5 mL/kg) to each group. Immediately thereafter, distilled water for the Vehicle group 1 or a 20% fat-containing emulation (Intralipid 20%: TERUMO CORP., Japan) for the Vehicle group 2 and the compound groups were orally administered thereto (0.2 mL/mouse). After a given time of 1 to 4 hours after administration, blood was collected from the tail vein or the right ventricle, and plasma was immediately separated and collected. Then, the triglyceride concentration in plasma was measured using a commercially available kit (Triglyceride E-Test Wako: Wako Pure Chemical Industries, Ltd.). In this method, the administration of the lipoprotein lipase inhibitor suppresses the hydrolysis of triglycerides in the blood such that the triglycerides are accumulated in the blood. These triglycerides are derived from two origins: exogenous triglycerides absorbed in the gastrointestinal tract and endogenous triglycerides released from the liver. The triglyceride absorption suppressive activity of each test compound was calculated based on the equation shown below by removing the influence of the endogenous triglycerides. In this context, each test compound was separately confirmed to have no influence on the concentration of the endogenous triglycerides.
Triglyceride absorption suppressive activity (%)=100−[(Triglyceride concentration of each test compound group)−(Triglyceride concentration of Vehicle group 1)]/[(Triglyceride concentration of Vehicle group 2)−(Triglyceride concentration of Vehicle group 1)]×100

Test [2] deals with T1, DGAT1 enzyme (Homo sapiens, UniProt O75907).
T1 construct: made in house
T1 sequence (O75907 1-488): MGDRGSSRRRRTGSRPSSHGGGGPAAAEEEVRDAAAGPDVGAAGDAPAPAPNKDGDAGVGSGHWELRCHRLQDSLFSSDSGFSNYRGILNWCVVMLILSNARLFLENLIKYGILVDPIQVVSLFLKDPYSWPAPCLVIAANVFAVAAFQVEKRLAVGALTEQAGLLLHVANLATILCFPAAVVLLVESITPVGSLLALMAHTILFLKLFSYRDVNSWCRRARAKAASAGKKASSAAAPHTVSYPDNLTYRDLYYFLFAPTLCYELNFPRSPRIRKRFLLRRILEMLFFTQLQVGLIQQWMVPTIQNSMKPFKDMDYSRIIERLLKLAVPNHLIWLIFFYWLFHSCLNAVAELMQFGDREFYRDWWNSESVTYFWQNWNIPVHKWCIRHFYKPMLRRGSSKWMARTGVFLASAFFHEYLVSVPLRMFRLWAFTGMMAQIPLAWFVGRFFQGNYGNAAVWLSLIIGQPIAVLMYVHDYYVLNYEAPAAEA
Briefly: DGAT1 inhibitory activity test. The class given is biochemical. Particulars: test compound concentration of 0.05 μg/ml; read-out: Inhibitory Rate. The procedure:
DGAT1 enzyme was prepared and stored according to the method described in US2007/0249620.
(2) DGAT1 Inhibitory Activity Test
A reaction solution having the following composition was incubated at room temperature (23° C.) for 30 minutes: 175 mM Tris-HCl (pH 8.0), 8 mM MgCl2, 1 mg/ml BSA, 0.3 mM 1,2-dioleoyl-sn-glycerol (10-fold concentration of EtOH solution, 10% added), 10 μM [^14C]-oleoyl-CoA (approximately 50 mCi/mmol), 0.5% Triton X-100, the DGAT1 enzyme (10 μg) obtained in Test Example 1(1), and a test compound or vehicle (DMSO/MeOH, 7:3 solution, 5% added), […] in total. A reaction stop solution ([…] consisting of isopropanol/1-heptane/water (80:20:2, v/v/v) was added to the reaction solution and stirred. Subsequently, water (30 μl) and 1-heptane (100 μl) were added thereto and stirred. The 1-heptane layer (50 μl) was spotted onto a TLC plate and developed with a developing solvent consisting of 1-hexane/diethyl ether/acetic acid (85:15:1, v/v/v). The radioactivity of the triglyceride fraction was quantified using BAS2000 Bio Image Analyzer (FUJIFILM) and compared with the control. The inhibitory activity of the test compound was calculated according to the formula shown below. In this context, the radioactivity at no reaction (0 minute incubation) was used as background. Inhibitory Rate=100−[(Radioactivity of sample supplemented with test compound)−(Background)]/[(Radioactivity of control)−(Background)]×100

In the case of `Cc1cnc(NC(=O)Nc2ccc3c(c2)CCN(C(=O)O[C@H]2CC[C@H](CC(=O)O)CC2)C3)s1` [Example 95, trans-6-[3-(5-methyl-thiazol-2-yl)-ureido]-3,4-dihydro-1H-isoquinoline-2-carboxylic acid 4-carboxymethyl-cyclohexyl ester], the inhibition in vivo at up to 10 mg/kg in test [1] was at least 60%. In addition, in test [2], the inhibition at 0.05 µg/mL is at least 50%.
As to `CC(C)c1cccc(NC(=O)Nc2ccc3c(c2)CCN(C(=O)O[C@H]2CC[C@H](CC(=O)O)CC2)C3)c1` [Example 29, trans-6-[3-(3-isopropyl-phenyl)-ureido]-3,4-dihydro-1H-isoquinoline-2-carboxylic acid 4-carboxymethyl-cyclohexyl ester], the inhibition in vivo at up to 10 mg/kg in test [1] is at least 60%. For the same molecule, the inhibition at 0.05 µg/mL in test [2] was at least 50%.
With `C[C@@H]1C[C@H](CC(=O)O)CC[C@H]1OC(=O)N1CCc2cc(NC(=O)Nc3cccc(OC(F)(F)F)c3)ccc2C1` [Example 102, 6-[3-(3-trifluoromethoxy-phenyl)-ureido]-3,4-dihydro-1H-isoquinoline-2-carboxylic acidt-4-carboxymethyl-t-2-methyl-r-1-cyclohexyl ester], the inhibition in vivo at up to 10 mg/kg in test [1] is at least 60%. Moreover, the inhibition at 0.05 µg/mL in test [2] is at least 50%.
The like results for `Cc1cccc(NC(=O)Nc2ccc3c(c2)CCN(C(=O)O[C@H]2CC[C@H](CC(=O)O)CC2)C3)c1` [Example 68, trans-6-(3-m-tolyl-ureido)-3,4-dihydro-1H-isoquinoline-2-carboxylic acid 4-carboxymethyl-cyclohexyl ester] were, in that order, at least 60% and at least 50%.
Regarding `O=C(O)C[C@H]1CC[C@H](OC(=O)N2CCc3cc(Nc4nc5ccc(Cl)cc5o4)ccc3C2)CC1` [Example 47, trans-6-(6-chloro-benzoxazol-2-ylamino)-3,4-dihydro-1H-isoquinoline-2-carboxylic acid 4-carboxymethyl-cyclohexyl ester], the inhibition in vivo at up to 10 mg/kg in test [1] was at least 60%. Also, the inhibition at 0.05 µg/mL in test [2] was at least 50%.
For `Cc1ccc(NC(=O)Nc2ccc3c(c2)CCN(C(=O)O[C@H]2CC[C@H](CC(=O)O)CC2)C3)cc1` [Example 71, trans-6-(3-p-tolyl-ureido)-3,4-dihydro-1H-isoquinoline-2-carboxylic acid 4-carboxymethyl-cyclohexyl ester] the same measures were at least 60% and at least 50%.
The like results for `CCOc1ccc(C)cc1NC(=O)Nc1ccc2c(c1)CCN(C(=O)O[C@H]1CC[C@H](CC(=O)O)CC1)C2` [Example 48, trans-6-[3-(2-ethoxy-5-methyl-phenyl)-ureido]-3,4-dihydro-1H-isoquinoline-2-carboxylic acid 4-carboxymethyl-cyclohexyl ester] were, in that order, at least 60% and at least 50%.
The like results for `CCOc1ccc(F)c(NC(=O)Nc2ccc3c(c2)CCN(C(=O)O[C@H]2CC[C@H](CC(=O)O)CC2)C3)c1` [Example 61, trans-6-[3-(5-ethoxy-2-fluoro-phenyl)-ureido]-3,4-dihydro-1H-isoquinoline-2-carboxylic acid 4-carboxymethyl-cyclohexyl ester] were, in that order, at least 60% and at least 50%.
For the molecule `O=C(O)C[C@H]1CC[C@H](OC(=O)N2CCc3cc(NC(=O)NCC4CCCCC4)ccc3C2)CC1` [Example 85, trans-6-(3-cyclohexylmethyl-ureido)-3,4-dihydro-1H-isoquinoline-2-carboxylic acid 4-carboxymethyl-cyclohexyl ester], in test [1], the inhibition in vivo at up to 10 mg/kg was at least 60%. Also, the inhibition at 0.05 µg/mL in test [2] is at least 50%.
On to `CCOc1ccc(C)c(NC(=O)Nc2ccc3c(c2)CCN(C(=O)O[C@H]2CC[C@H](CC(=O)O)CC2)C3)c1` [Example 55, trans-6-[3-(5-ethoxy-2-methyl-phenyl)-ureido]-3,4-dihydro-1H-isoquinoline-2-carboxylic acid 4-carboxymethyl-cyclohexyl ester], for which the inhibition in vivo at up to 10 mg/kg in test [1] is at least 60%. The inhibition at 0.05 µg/mL in test [2] is at least 50%.
The like results for `CC(C)(C(=O)O)[C@H]1CC[C@H](OC(=O)N2CCc3cc(NC(=O)Nc4ccccc4F)ccc3C2)CC1` [Example 13, trans-6-[3-(2-fluoro-phenyl)-ureido]-3,4-dihydro-1H-isoquinoline-2-carboxylic acid 4-(carboxy-1-methyl-ethyl)-cyclohexyl ester] were, in that order, at least 60% and at least 50%.
The like results for `CC(C(=O)O)[C@H]1CC[C@H](OC(=O)N2CCc3cc(NC(=O)Nc4ccccc4)ccc3C2)CC1` (stereo partly drawn) [Example 105, trans-6-(3-phenyl-ureido)-3,4-dihydro-1H-isoquinoline-2-carboxylic acid 4-(1-carboxy-ethyl)-cyclohexyl ester] were, in that order, at least 60% and at least 50%.
For `COc1cccc(NC(=O)Nc2ccc3c(c2)CCN(C(=O)O[C@H]2CC[C@H](CC(=O)O)CC2)C3)c1` [Example 49, trans-6-[3-(3-methoxy-phenyl)-ureido]-3,4-dihydro-1H-isoquinoline-2-carboxylic acid 4-carboxymethyl-cyclohexyl ester] the same measures were at least 60% and at least 50%.
Take `O=C(O)C[C@H]1CC[C@H](OC(=O)N2CCc3cc(NC(=O)Nc4cccc(C(F)(F)F)c4)ccc3C2)CC1` [Example 66, trans-6-[3-(3-trifluoromethyl-phenyl)-ureido]-3,4-dihydro-1H-isoquinoline-2-carboxylic acid 4-carboxymethyl-cyclohexyl ester]: the inhibition in vivo at up to 10 mg/kg in test [1] is at least 60%. Besides, the inhibition at 0.05 µg/mL in test [2] was at least 50%.
Take `CC(C)NC(=O)Nc1ccc2c(c1)CCN(C(=O)O[C@H]1CC[C@H](CC(=O)O)CC1)C2` [Example 81, trans-6-(3-isopropyl-ureido)-3,4-dihydro-1H-isoquinoline-2-carboxylic acid 4-carboxymethyl-cyclohexyl ester]: the inhibition in vivo at up to 10 mg/kg in test [1] was at least 60%.
Consider `O=C(Nc1ccc2c(c1)CCN(C(=O)O[C@H]1CC[C@H](CC(=O)OC[C@H](O)CO)CC1)C2)Nc1ccccc1F` [Example 46, trans-6-[3-(2-fluoro-phenyl)-ureido]-3,4-dihydro-1H-isoquinoline-2-carboxylic acid 4-((R)-2,3-dihydroxy-propoxycarbonylmethyl)-cyclohexyl ester], for which, in test [1], the inhibition in vivo at up to 10 mg/kg is at least 60%.
Consider `O=C(C[C@H]1CC[C@H](OC(=O)N2CCc3cc(NC(=O)Nc4ccccc4F)ccc3C2)CC1)NC1(C(=O)O)CC1` [Example 37, trans-6-[3-(2-fluoro-phenyl)-ureido]-3,4-dihydro-1H-isoquinoline-2-carboxylic acid 4-[(1-carboxy-cyclopropylcarbamoyl)-methyl]-cyclohexyl ester], for which the inhibition at 0.05 µg/mL in test [2] was at least 50%.

Values taken from patent US8735425B2, “Tetrahydroisoquinoline derivative” (Daiichi Sankyo Company, Limited, priority 2008, dated 2014).
